# Measured values as given in paper PMC3577359 (Biochemistry, 2013).
# Several values for one entry are separate records, joined by “and”; a condition that tells them apart may be missing. Equal values may be shown once. Read-outs that look alike come from different tables or passages of the source.
# Experiments:
# [1] = test system: holo–AusA reductase domain; format: biochemical, Staphylococcus aureus; conditions: for Aureusimine-A Formation kobs / NADPH Consumption kobs: ATP; for Aureusimine-A Formation kobs: LC-MS
# AusA (A1–T1–C–A2–T2–R) = AusA (A1–T1–C–A2–T2–R) (Staphylococcus aureus, UniProt A0A0H3JX00); format: biochemical
# A1–T1 = A1–T1 (Staphylococcus aureus, UniProt A0A0H3JX00); experiment: ATP–PPi exchange assay, inhibition of A1–T1 didomain; format: biochemical
# A2–T2–R = A2–T2–R (Staphylococcus aureus, UniProt A0A0H3JX00); experiment: ATP–PPi exchange assay, inhibition of A2–T2–R tridomain; format: biochemical
# holo–AusA = holo–AusA (Staphylococcus aureus, UniProt A0A0H3JX00); conditions: for kcat/KM, fold lower than that of L-Tyr: fixed saturating L-Val, ATP, NADPH
# CC(C)C[C@H](N)C(=O)O = experiment: ATP–PPi exchange kinetic parameters of AusA, A1/A2 aggregate; format: biochemical, Staphylococcus aureus; conditions: other: non-varied ATP 3 mM; aggregate of A1 and A2; pH 8.0; 37.0 °C
# [2] = test system: Nc1ncnc2c1ncn2[C@@H]1O[C@H](COP(=O)(O)OP(=O)(O)OP(=O)(O)O)[C@@H](O)[C@H]1O; experiment: purified protein, by the assay type; conditions: other: ATP varied, pH 8.0
# AusA A1 domain = AusA A1 domain (Staphylococcus aureus, UniProt A0A0H3JX00); experiment: ATP–PPi exchange kinetic parameters of AusA, A1 domain; format: biochemical
# AusA A1/A2 = AusA A1/A2 (Staphylococcus aureus, UniProt A0A0H3JX00); experiment: ATP–PPi exchange kinetic parameters of AusA, A1/A2 aggregate; format: biochemical
# CC(C)[C@H](N)C(=O)O = experiment: ATP–PPi exchange kinetic parameters of AusA, A1 domain; format: biochemical, Staphylococcus aureus; conditions: other: varied amino acid, non-varied ATP 3 mM; apparent; pH 8.0; 37.0 °C
# CC[C@H](C)[C@H](N)C(=O)O = experiment: as above; format: biochemical, Staphylococcus aureus; conditions: other: varied amino acid, non-varied ATP 3 mM; apparent; pH 8.0; 37.0 °C
# calpain = conditions: cited from earlier work
# [3] = cited from earlier work
# [4] = test system: N[C@@H](Cc1ccc(O)cc1)C(=O)O; experiment: ATP–PPi exchange kinetic parameters of AusA, A2 domain; format: biochemical, Staphylococcus aureus; conditions: other: varied amino acid, non-varied ATP 3 mM; apparent; pH 8.0; 37.0 °C
# N[C@@H](Cc1ccccc1)C(=O)O = experiment: as above; format: biochemical, Staphylococcus aureus; conditions: other: varied amino acid, non-varied ATP 3 mM; apparent; pH 8.0; 37.0 °C
# [5] = test system: Nc1ccc(C[C@H](N)C(=O)O)cc1; experiment: as above; format: biochemical, Staphylococcus aureus; conditions: other: varied amino acid, non-varied ATP 3 mM; apparent; pH 8.0; 37.0 °C
# [6] = test system: Nc1ncnc2c1ncn2[C@@H]1O[C@H](COP(=O)(O)OP(=O)(O)OP(=O)(O)O)[C@@H](O)[C@H]1O; experiment: as above; format: biochemical, Staphylococcus aureus; conditions: other: varied ATP, non-varied L-Phe 30 mM; pH 8.0; 37.0 °C
# AusA A2 domain = AusA A2 domain (Staphylococcus aureus, UniProt A0A0H3JX00); experiment: as above; format: biochemical
# [7] = substrates L-Val, NADPH (no L-Tyr)
compound,measurement,setting,value
"CC(C)c1ncc(Cc2ccc(O)cc2)[nH]c1=O [compound 1, aureusimine-A]",Aureusimine-A Formation kobs,"[1]; substrates L-Tyr, NADPH (no L-Val)",0 min⁻¹
same,Aureusimine-A Formation kobs,[1]; [7],0 min⁻¹
same,Aureusimine-A Formation kobs,"[1]; substrates L-Val, L-Tyr, NADPH, listed as Aureusimine-A",0.28 ± 0.01 min⁻¹
same,Aureusimine-A Formation kobs,"[1]; substrates L-Val, L-Tyr, NADPH, listed as aureusimine-A",0.28 min⁻¹
"Nc1ncnc2c1ncn2[C@@H]1O[C@H](COS(=O)(=O)NC(=O)[C@@H](N)Cc2ccccc2)[C@@H](O)[C@H]1O [Phe-AMS, 5′-O-[N-(phenylalanyl)sulfamoyl]adenosine]",Ki,AusA (A1–T1–C–A2–T2–R),0.8 ± 0.5 nM
same,effect on amino acid-dependent ATP–PPi exchange activity,"AusA (A1–T1–C–A2–T2–R); 100 μM Phe-AMS, with L-Phe, L-4Aph, L-Tyr and L-Met",eliminates the enzymatic activity
same,Ki,A1–T1,> 100000 nM
same,inhibition of A1–T1,A1–T1; up to 100 μM,little inhibition
same,Ki,A2–T2–R,< 4 nM
same,selectivity factor (A2 over A1–T1),A2–T2–R,> 10^4
same,consumption of NADPH with the A2-specific inhibitor added,"[1]; L-Tyr reaction, data not shown",not observed
NADPH,NADPH Consumption kobs,[1]; [7],0 min⁻¹
same,NADPH Consumption kobs,"[1]; substrates L-Val, L-Tyr, NADPH, 80 nM holo–AusA, ambient temperature",2.01 min⁻¹ and 2.01 ± 0.05 min⁻¹
same,kobs,"holo–AusA; at 0.1 mM NADPH, L-Val, L-Tyr, ATP non-varied",0.39 min⁻¹
AusA A1/A2 (Staphylococcus aureus subsp. aureus Mu50),Km,CC(C)C[C@H](N)C(=O)O,24 ± 3 mM
same,kcat,CC(C)C[C@H](N)C(=O)O,0.248 ± 0.0167 s⁻¹
same,kcat/Km,CC(C)C[C@H](N)C(=O)O,10 M⁻¹ s⁻¹ and 10.3 M⁻¹ s⁻¹
holo–AusA (Staphylococcus aureus subsp. aureus Mu50),Km,[2]; L-Leu as the non-varied amino acid,9.7 mM
same,Km,[2]; L-Tyr as the non-varied amino acid,0.1 mM
CC[C@H](C)[C@H](N)C(=O)O [L-Ile],"exchange rate, fold lower than with L-Val",AusA A1 domain; in the presence of Phe-AMS,~10 fold
CC(C)C[C@H](N)C(=O)O [L-Leu],"kcat/KM, fold less than the best substrates",AusA A1/A2,more than 200 fold
same,"kcat/KM, fold lower than that of L-Tyr",holo–AusA,302 fold
AusA A1 domain (Staphylococcus aureus subsp. aureus Mu50),Km,CC(C)[C@H](N)C(=O)O,3.3 ± 0.1 mM
same,kcat,CC(C)[C@H](N)C(=O)O,7.683 ± 0.05 s⁻¹
same,kcat/Km,CC(C)[C@H](N)C(=O)O,2330 ± 72 M⁻¹ s⁻¹
same,Km,CC[C@H](C)[C@H](N)C(=O)O,11.9 ± 0.9 mM
same,kcat,CC[C@H](C)[C@H](N)C(=O)O,0.565 ± 0.0183 s⁻¹
same,kcat/Km,CC[C@H](C)[C@H](N)C(=O)O,47 ± 4 M⁻¹ s⁻¹
"CC(C)c1ncc(Cc2ccccc2)[nH]c1=O [compound 2, aureusimine-B]",calpain inhibition activity,calpain,~ 1 μM
same,antibacterial activity,[3],no antibacterial activity was observed
AusA A2 domain (Staphylococcus aureus subsp. aureus Mu50),Km,[4],1.0 ± 0 mM
same,kcat,[4],2.15 ± 0.0167 s⁻¹
same,kcat/Km,[4],2150 ± 17 M⁻¹ s⁻¹
same,Km,N[C@@H](Cc1ccccc1)C(=O)O,2.1 ± 0.1 mM
same,kcat,N[C@@H](Cc1ccccc1)C(=O)O,0.675 ± 0.01 s⁻¹
same,kcat/Km,N[C@@H](Cc1ccccc1)C(=O)O,321 ± 16 M⁻¹ s⁻¹
same,Km,[5],31 ± 1 mM
same,kcat,[5],1.53 ± 0.0333 s⁻¹
same,kcat/Km,[5],49 ± 2 M⁻¹ s⁻¹
same,Km,[6],3.0 ± 0.5 mM
same,kcat,[6],1.05 ± 0.117 s⁻¹
same,kcat/Km,[6],350 ± 70 M⁻¹ s⁻¹
"CC(C)[C@H](N)C(=O)NS(=O)(=O)OC[C@H]1O[C@@H](n2cnc3c(N)ncnc32)[C@H](O)[C@@H]1O [Val-AMS, 5′-O-[N-(valinyl)sulfamoyl]adenosine]",Ki,AusA (A1–T1–C–A2–T2–R),44 ± 7 nM
same,activity reduction relative to the uninhibited control,"AusA (A1–T1–C–A2–T2–R); 100 μM Val-AMS, with L-Tyr, L-Phe, L-4Aph and L-Leu, off-target inhibition of A2",more than 2 fold
same,effect on amino acid-dependent ATP–PPi exchange activity,"AusA (A1–T1–C–A2–T2–R); 100 μM Val-AMS, with L-Val, L-Ile, L-Cle, L-Ala, L-Cys, L-Tle and L-Met",eliminated
same,Ki,A1–T1,63 ± 5 nM
same,selectivity factor Ki(A2-T2-R)/Ki(A1-T1),A1–T1,158
same,Ki,A2–T2–R,10000 nM
NC(=O)C1=CN([C@@H]2O[C@H](COP(=O)(O)OP(=O)(O)OC[C@H]3O[C@@H](n4cnc5c(N)ncnc54)[C@H](O)[C@@H]3O)[C@@H](O)[C@H]2O)C=CC1 [NADH],cofactor use by AusA,[1]; data not shown,unable to use
"Nc1ccc(C[C@H](N)C(=O)O)cc1 [L-4Aph, L-4-aminophenylalanine]",decrease in kcat relative to L-Tyr,AusA A2 domain,30%
same,increase in KM relative to L-Tyr,AusA A2 domain,31 fold
same,"kcat/KM, fold lower than that of L-Tyr",holo–AusA,17 fold
N[C@@H](Cc1ccccc1)C(=O)O [L-Phe],"kcat/KM, fold lower than that of L-Tyr",holo–AusA,2.8 fold
"CC(C)[C@H](N)C(=O)O [L-Val, L-Valine]","kcat/KM, fold greater than L-Ile",AusA A1 domain,49 fold
